Here are results for 11 compounds from the Kinase Knowledgebase extract (Sharma et al. 2016).

Some results are limits rather than exact numbers.

In this experiment the target is ROCK2 (human) (UniProt O75116). The experiment can be described thus: Inhibition of ROCK2 Kinase Activity.
ROCK2 (human), sequence (O75116 whole entry, looked up): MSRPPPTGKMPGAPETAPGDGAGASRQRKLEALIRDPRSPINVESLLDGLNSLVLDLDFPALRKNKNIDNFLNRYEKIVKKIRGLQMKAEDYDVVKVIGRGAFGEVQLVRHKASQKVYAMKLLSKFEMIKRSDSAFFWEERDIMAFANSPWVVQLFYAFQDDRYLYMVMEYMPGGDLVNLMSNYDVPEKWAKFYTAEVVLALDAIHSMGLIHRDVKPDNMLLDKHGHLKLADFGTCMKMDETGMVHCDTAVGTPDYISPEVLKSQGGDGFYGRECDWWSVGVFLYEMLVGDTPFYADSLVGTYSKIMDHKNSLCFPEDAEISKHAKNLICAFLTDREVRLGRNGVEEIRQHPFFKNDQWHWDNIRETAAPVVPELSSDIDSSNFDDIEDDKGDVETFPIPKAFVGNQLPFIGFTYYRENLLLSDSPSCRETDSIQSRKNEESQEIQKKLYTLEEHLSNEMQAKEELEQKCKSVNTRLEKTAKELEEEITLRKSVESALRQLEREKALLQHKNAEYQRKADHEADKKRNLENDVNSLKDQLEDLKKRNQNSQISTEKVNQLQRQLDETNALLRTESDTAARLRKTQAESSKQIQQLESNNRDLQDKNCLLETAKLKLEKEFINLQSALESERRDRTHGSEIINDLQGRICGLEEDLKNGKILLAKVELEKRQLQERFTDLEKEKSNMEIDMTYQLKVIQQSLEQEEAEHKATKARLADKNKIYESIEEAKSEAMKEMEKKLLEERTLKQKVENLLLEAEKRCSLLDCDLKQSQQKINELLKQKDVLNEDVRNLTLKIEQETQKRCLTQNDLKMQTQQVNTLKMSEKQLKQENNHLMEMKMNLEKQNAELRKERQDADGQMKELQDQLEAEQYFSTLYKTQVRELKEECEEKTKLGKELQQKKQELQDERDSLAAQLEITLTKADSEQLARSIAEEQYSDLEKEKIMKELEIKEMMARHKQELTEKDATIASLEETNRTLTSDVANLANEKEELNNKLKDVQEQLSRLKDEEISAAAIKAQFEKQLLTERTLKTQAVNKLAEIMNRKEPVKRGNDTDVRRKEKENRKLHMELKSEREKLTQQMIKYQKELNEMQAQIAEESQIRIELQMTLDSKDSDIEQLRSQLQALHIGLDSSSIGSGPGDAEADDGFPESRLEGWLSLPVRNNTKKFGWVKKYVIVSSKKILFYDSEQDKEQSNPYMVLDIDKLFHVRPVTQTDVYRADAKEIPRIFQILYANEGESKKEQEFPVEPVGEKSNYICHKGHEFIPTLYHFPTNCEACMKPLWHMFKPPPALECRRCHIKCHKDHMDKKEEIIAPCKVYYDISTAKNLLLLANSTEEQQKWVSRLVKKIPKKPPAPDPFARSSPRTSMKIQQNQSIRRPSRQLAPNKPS
As to `CN(CC(N)c1ccc(C(=O)Nc2ccncc2)cc1)C(=O)C(C)(C)c1ccsc1` (stereo unspecified), the IC50 (usually the concentration that gives 50% inhibition) lay in the range of 500 to 5000 nM.

On to `NC(CNC(=O)C(c1ccccc1)C1CCCC1)c1ccc(C(=O)Nc2ccncc2)cc1` (stereo unspecified), for which the IC50 is 500 to 5000 nM. Compound `CC(Cc1c[nH]c2ccccc12)NC(=O)CC(N)c1ccc(C(=O)Nc2ccncc2)cc1` (stereo unspecified) yielded an IC50 of 50 to 500 nM. In the case of `NC(CNC(=O)c1csc(-c2ccccc2)n1)c1ccc(C(=O)Nc2ccncc2)cc1` (stereo unspecified), the IC50 was in the range of 500 to 5000 nM. `COCCC(=O)NCC(N)c1ccc(C(=O)Nc2ccncc2)cc1` (stereo unspecified): the IC50 fell in the range of 500 to 5000 nM.

For `NC(CNC(=O)c1ccccc1Oc1ccccc1)c1ccc(C(=O)Nc2ccncc2)cc1` (stereo unspecified), the IC50 fell in the range of 500 to 5000 nM. To `N[C@H](CC(=O)NC1COc2ccccc21)c1ccc(C(=O)Nc2ccncc2)cc1` (stereo partly specified) belongs less than 50 nM; to `Cc1cccc(CC(=O)N2CCCC2C(N)c2ccc(C(=O)Nc3ccncc3)cc2)c1` (stereo unspecified), 500 to 5000 nM; to `CC(C)(C(=O)NCC(N)c1ccc(C(=O)Nc2ccncc2)cc1)c1ccc(F)cc1Cl` (stereo unspecified), 50 to 500 nM. Regarding `N#CCC(=O)NCC(N)c1ccc(C(=O)Nc2ccncc2)cc1` (stereo unspecified), the IC50 was in the range of 50 to 500 nM.

The compound `NC(c1ccc(C(=O)Nc2ccncc2)cc1)C1CCCN1C(=O)C1CCSc2ccc(F)cc21` (stereo unspecified) displayed an IC50 of 500 to 5000 nM.
